Test results: patent US5932733A, “3-amino-2-oxo-1-piperidineacetic derivatives containing an arginine mimic as enzyme inhibitors” (Corvas International, Inc., priority 1995, dated 1999)

Columns and labels:
alpha-thrombin = alpha-thrombin (Homo sapiens, UniProt P00734); assay: In vitro enzyme assay for specificity: thrombin amidolytic activity; assay type: biochemical; conditions: 0.25 nM enzyme, 30 min preincubation, pH 7.5, mean of at least two experiments
rt-PA = target: T1, rt-PA (Homo sapiens, UniProt P00750); assay: In vitro enzyme assay for specificity: recombinant tissue plasminogen activator; assay type: biochemical; conditions: 1.0 nM enzyme, 30 min preincubation, pH 7.5; mean of at least two experiments
T1 construct: purchased Genentech Inc
T1 sequence (P00750 36-562): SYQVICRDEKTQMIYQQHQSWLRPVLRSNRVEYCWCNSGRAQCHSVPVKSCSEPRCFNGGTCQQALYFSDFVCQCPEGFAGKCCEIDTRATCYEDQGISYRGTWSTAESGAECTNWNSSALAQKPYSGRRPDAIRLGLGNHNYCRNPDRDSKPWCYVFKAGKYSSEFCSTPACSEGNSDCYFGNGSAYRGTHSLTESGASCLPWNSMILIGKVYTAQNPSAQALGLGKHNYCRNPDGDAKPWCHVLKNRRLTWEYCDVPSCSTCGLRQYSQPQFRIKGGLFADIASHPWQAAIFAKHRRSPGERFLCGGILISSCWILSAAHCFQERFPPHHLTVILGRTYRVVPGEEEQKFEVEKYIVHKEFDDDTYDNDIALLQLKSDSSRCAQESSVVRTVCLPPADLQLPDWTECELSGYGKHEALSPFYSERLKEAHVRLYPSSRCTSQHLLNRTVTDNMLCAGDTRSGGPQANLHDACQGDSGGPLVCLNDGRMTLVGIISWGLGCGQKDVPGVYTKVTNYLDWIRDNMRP
From the text: Recombinant tissue plasminogen activator (rt-PA)

Plasmin = Plasmin (Homo sapiens, UniProt P00747); assay: In vitro enzyme assay for specificity: plasmin; assay type: biochemical; conditions: 1.0 nM enzyme, 30 min preincubation, pH 7.5; mean of at least two experiments
Plasmin, sequence (P00747 97-580 limits assumed): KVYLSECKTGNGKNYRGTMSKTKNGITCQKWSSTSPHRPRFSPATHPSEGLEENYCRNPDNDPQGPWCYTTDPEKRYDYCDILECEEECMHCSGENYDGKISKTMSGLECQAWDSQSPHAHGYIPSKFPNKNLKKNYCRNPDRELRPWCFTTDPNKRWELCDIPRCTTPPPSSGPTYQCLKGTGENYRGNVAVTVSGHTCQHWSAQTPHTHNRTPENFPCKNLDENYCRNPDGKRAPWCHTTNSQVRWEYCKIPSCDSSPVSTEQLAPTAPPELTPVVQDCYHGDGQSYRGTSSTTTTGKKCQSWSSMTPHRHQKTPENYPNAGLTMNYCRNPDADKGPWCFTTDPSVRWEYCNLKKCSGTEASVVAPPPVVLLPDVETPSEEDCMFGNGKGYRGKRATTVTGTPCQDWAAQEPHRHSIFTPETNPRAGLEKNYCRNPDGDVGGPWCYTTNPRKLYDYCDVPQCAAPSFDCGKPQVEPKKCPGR
Plasmin, sequence (P00747 581-810 limits assumed): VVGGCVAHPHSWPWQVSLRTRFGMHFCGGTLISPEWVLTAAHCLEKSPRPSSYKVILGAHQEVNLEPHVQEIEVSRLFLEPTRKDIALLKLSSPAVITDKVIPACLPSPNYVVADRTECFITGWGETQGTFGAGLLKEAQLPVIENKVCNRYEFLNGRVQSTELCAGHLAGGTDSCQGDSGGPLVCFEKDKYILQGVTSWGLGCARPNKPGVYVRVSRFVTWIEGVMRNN
Description: Plasmin catalytic activity was determined using the chromogenic substrate, S-2251 [D-valyl-L-leucyl-L-lysine-p-nitroanilide], which was obtained from Kabi Diagnostica.

aPC = target: T2, aPC (Homo sapiens, UniProt P04070); assay: In vitro enzyme assay for specificity: activated protein C; assay type: biochemical; conditions: 1.0 nM enzyme, 30 min preincubation, pH 7.5; mean of at least two experiments
T2 construct: purchased Hematologic Technologies, Inc
T2 sequence (P04070 43-197 limits assumed): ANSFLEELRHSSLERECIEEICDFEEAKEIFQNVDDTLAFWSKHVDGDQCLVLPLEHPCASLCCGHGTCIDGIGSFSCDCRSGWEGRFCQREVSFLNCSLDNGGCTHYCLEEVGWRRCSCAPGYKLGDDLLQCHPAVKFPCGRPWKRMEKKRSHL
T2 sequence (P04070 212-461 limits assumed): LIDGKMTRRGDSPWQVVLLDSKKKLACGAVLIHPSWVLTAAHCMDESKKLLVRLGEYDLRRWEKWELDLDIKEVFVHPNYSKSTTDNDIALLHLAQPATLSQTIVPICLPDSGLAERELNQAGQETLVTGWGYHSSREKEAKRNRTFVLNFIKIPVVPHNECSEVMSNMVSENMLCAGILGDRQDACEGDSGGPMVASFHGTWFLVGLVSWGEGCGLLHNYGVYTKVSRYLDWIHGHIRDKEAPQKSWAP
Description: Activated Protein C (aPC)
aPC catalytic activity was determined using the chromogenic substrate, Pefachrome PC (delta-carbobenzloxy-D-lysine-L-prolyl-L-arginine-p-nitroanilide), obtained from Pentapharm Ltd.). […] Purified human aPC was obtained from Hematologic Technologies, Inc. The enzyme was diluted into HBSA prior to assay in which the final concentration was 1.0 nM.

Chymotrypsin = Chymotrypsin (Bos taurus, UniProt P00766); assay: In vitro enzyme assay for specificity: chymotrypsin; assay type: biochemical, bovine; conditions: 1.0 nM enzyme, 30 min preincubation, pH 7.5; mean of at least two experiments
Description: Chymotrypsin catalytic activity was determined using the chromogenic substrate, S-2586 (methoxy-succinyl-L-arginine-L-prolyl-L-tyrosyl-p-nitroanilide), which was obtained from Kabi Diagnostica. […] Purified (3×-crystallized;CDI) bovine pancreatic alpha-chymotrypsin was obtained from Worthington Biochemical Corp. The enzyme was reconstituted in deionized water and diluted into HBSA prior to assay in which the final concentration was 1.0 nM.

Trypsin = target: T3, Trypsin (Bos taurus, UniProt P00760); assay: In vitro enzyme assay for specificity: trypsin; assay type: biochemical, bovine; conditions: 0.5 nM enzyme, 30 min preincubation, pH 7.5; mean of at least two experiments
T3 sequence (P00760 24-246): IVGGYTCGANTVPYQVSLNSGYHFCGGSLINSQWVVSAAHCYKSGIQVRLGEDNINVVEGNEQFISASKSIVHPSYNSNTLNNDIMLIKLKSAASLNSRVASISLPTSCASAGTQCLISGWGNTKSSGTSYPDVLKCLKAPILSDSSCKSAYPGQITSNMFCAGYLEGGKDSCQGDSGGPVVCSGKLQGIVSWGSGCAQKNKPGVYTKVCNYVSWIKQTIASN
Description: Trypsin catalytic activity was determined using the chromogenic substrate, S-2222 (benzoyl-L-isoleucine-L-glutamic acid- (gamma-methyl ester)-L-arginine-p-nitroanilide), which was obtained from Kabi Diagnostica. […] Purified (3×-crystallized; TRL3) bovine pancreatic trypsin was obtained from Worthington Biochemical Corp. The enzyme was reconstituted in deionized water and diluted into HBSA prior to assay in which the final concentration was 0.5 nM.

human plasma = assay: Ex vivo anticoagulant effect, activated partial thromboplastin time (APTT) in human plasma; assay type: biochemical; conditions: citrated human plasma; control 29 seconds; mean of two independent determinations
From the text: (§1) The control clotting times (0 inhibitor) for rat and human plasma were 19 seconds and 29 seconds, respectively. The concentration of BzlSO2 -norVal(cyclo)-Gly-Ala(3-guanPip)-al which caused a doubling of the control clotting time in rat and human plasma was 12.7 micromolar and 9.1 micromolar, respectively. The data is the mean of two independent determinations.
(§2) Fresh frozen citrated pooled normal human plasma was obtained from George King Biomedical, Overland Park, KA. Pooled normal rat plasma was prepared from citrated whole blood collected from anesthetized rats using standard procedures. The plasma was flash frozen and stored at-80° C. until use. Measurements APTT was made using the Coag-A-Mate RA4 automated coagulometer (General Diagnostics, Organon Technica, Oklahoma City, Okla.) using the Automated APTT reagent (Organon Technica, Durham, N.C.) as the initiator of clotting according to the manufacturers instructions. The assay was conducted by making a series of dilution's of Isomer B in rapidly thawed plasma followed by adding 200 microliters to the wells of the assay carousel.

rat plasma = assay: Ex vivo anticoagulant effect, activated partial thromboplastin time (APTT) in rat plasma; assay type: biochemical; conditions: citrated rat plasma; control 19 seconds; mean of two independent determinations
From the text: as §1, §2

[1] = test system: FeCl3-induced platelet-dependent arterial thrombosis; assay: Rat model of FeCl3-induced platelet-dependent arterial thrombosis; assay type: in vivo; conditions: single i.v. bolus, n=6, saline 6/6
From the text: Kurz, K. D., Main, B. W., and Sandusky, G. E., Thromb. […] In this model a platelet-rich, occlusive thrombus is formed in a segment of the rat carotid artery treated locally with a fresh solution of FeCl3 absorbed to a piece of filter paper. The FeCl3 is thought to diffuse into the treated segment of artery and causes de-endothelialization of the affected vessel surface. […] The effect of a test compound on the incidence of occlusive thrombus formation following the application of the FeCl3 is monitored by ultrasonic flowtometry and is used as the primary end point. The use of flowtometry to measure carotid artery blood flow, is a modification of the original procedure in which thermal detection of clot formation was employed. Kurz, K. D., Main, B. W., and Sandusky, G. E., Thromb. […] The animals were prepared, anesthetized with Nembutal followed by the insertion of catheters for blood pressure monitoring, drug and anesthesia delivery. The left carotid artery was isolated by making a midline cervical incision followed by blunt dissection and spreading techniques to separate a 2 cm segment of the vessel from the carotid sheath. A silk suture is inserted under the proximal and distal ends of the isolated vessel to provide clearance for the placement of a ultrasonic flow probe (Transonic) around the proximal end of the vessel. The probe is then secured with a stationary arm. […] The test compound was administered as a single intravenous bolus at the doses outlined in Table 3 after placement of the flow probe and 5 minutes prior to the thrombogenic stimulus.

[2] = test system: trypsin, plasmin and kallikrein; conditions: Markwardt et al. 1972, inhibiting trypsin; cited from earlier work
[3] = literature report; cited from earlier work
[4] = Markwardt et al. 1972; cited from earlier work

IC50 (Plasmin) [nM] | IC50 (aPC) [nM] | IC50 (Chymotrypsin) [nM] | IC50 (Trypsin) [nM] | SMILES | IC50 (alpha-thrombin) [nM] | further results
> 2500 | > 2500 | > 2500 | 11200 | N=C(N)N1CCCC(C[C@@H](C=O)NC(=O)CN2CCCC[C@H](NS(=O)(=O)Cc3ccccc3)C2=O)C1 (single isomer, unassigned) [C, N-(BnSO2-norLeu(cyclo)-Gly)-3-[3-piperidyl-(N-guanidino)]alaninal] | – | –
> 2500 | > 2500 | > 2500 | 34400 | N=C(N)N1CCCC(C[C@@H](C=O)NC(=O)CN2CCCC[C@H](NS(=O)(=O)Cc3ccccc3)C2=O)C1 (single isomer, unassigned) [D, N-(BnSO2-norLeu(cyclo)-Gly)-3-[3-piperidyl-(N-guanidino)]alaninal] | – | –
– | – | – | – | N=C(N)N1CCCC(C[C@@H](C=O)NC(=O)CN2CCC[C@H](NS(=O)(=O)Cc3ccccc3)C2=O)C1 (single isomer, unassigned) [Isomer B, benzylsulfonyl-norval(cyclo)-Gly-3-[3-piperidyl-(N-guanidino)]-L-alaninal] | 0.8 | concentration which caused a doubling of the control clotting time (APTT) (human plasma): 9.1 µM; concentration which caused a doubling of the control clotting time (APTT) (rat plasma): 12.7 µM; Incidence of Occlusion ([1]; 0.3 mg/kg): 6/6; Incidence of Occlusion ([1]; 1.0 mg/kg): 4/6; Incidence of Occlusion ([1]; 3.0 mg/kg, * p ≤ 0.05 from saline control by Fishers test): 0/6
– | – | – | – | N=C(N)c1ccc(CC(=O)C(=O)O)cc1 [APPA, 4-amidinophenylpyruvic acid] | – | selectivity of thrombin inhibition [2]: non-selective, inhibiting trypsin, plasmin and kallikrein; toxicity [3]: low toxicity; pharmacokinetics [4]: favourable pharmacokinetics

SMILES | IC50 (Plasmin) [nM] | IC50 (aPC) [nM] | IC50 (Chymotrypsin) [nM] | IC50 (Trypsin) [nM] | IC50 (alpha-thrombin) [nM] | further results
N=C(N)N1CCCC(C[C@@H](C=O)NC(=O)CN2CCC[C@H](NS(=O)(=O)Cc3ccccc3)C2=O)C1 (single isomer, unassigned) [A, benzylsulfonyl-norval(cyclo)-Gly-3-[3-piperidyl-(N-guanidino)]-L-alaninal] | > 2500 | > 25000 | > 25000 | > 25000 | 28.8 | IC50 (rt-PA): > 25000 nM
